The data set can be described thus: in vitro. Conditions: human, hela cells, % viability.

Here are results for 80 compounds from publication PMC12040169 (PLOS Biology, 2025).

Turning to `COc1ccc(I)cc1S(=O)(=O)NCc1ccccn1` [CBK264019], the viability (commonly a read-out of living cells in per cent, often relative to untreated cells) at 28.5 h, 10 µM stood at 91.3%.

With `CN(c1cccc(NS(=O)(=O)c2ccc3ccccc3c2)c1)S(C)(=O)=O` [CBK267507], the viability at 28.5 h, 10 µM was 85.7%.

As for `CCCCc1ccc(N2C(=O)CC(Nc3ccc(C(=O)O)cc3)C2=O)cc1` (centres unmarked) [CBK296972], the viability at 28.5 h, 10 µM came out at 108%.

Take `Cc1cc(C)n(CCCn2cncc2-c2cnn(C)c2)n1` [CBK281771]: the viability at 28.5 h, 10 µM came to 84.9%.

Consider `COc1cc(C2C3=C(COC3=O)Nc3[nH]nc(C)c32)ccc1O` (centres unmarked) [CBK288146], for which the viability at 28.5 h, 10 µM was 98.5%.

Regarding `CC(NC(=O)c1c2c(nn1C)CCCC2)c1ccccn1` (centres unmarked) [CBK281888], the viability at 28.5 h, 10 µM turned out to be 95.2%.

For the compound `CC(C)(C)c1ccc(C(=O)NC(=S)Nc2ccc(O)c(-c3nc4cc(Cl)ccc4o3)c2)cc1` [CBK264169], the viability at 28.5 h, 10 µM is 88%.

On to `Nc1nc2c([nH]c(=O)n2[C@H]2C[C@@H](O)[C@@H](CO)O2)c(=O)[nH]1` [CBK201269], for which the viability at 28.5 h, 10 µM is 94.7%.

Take `Cc1ccc(OCCOCCN(C)C)c(Cl)c1` [CBK265493G]: the viability at 28.5 h, 10 µM was 111%.

For `CCOc1ccccc1NC(=O)CSc1c[nH]nn1` [CBK270005], the viability at 28.5 h, 10 µM came to 83.3%.

As for `COc1ccccc1N(CC(=O)Nc1ccc2c(c1)oc1ccccc12)S(=O)(=O)c1ccccc1` [CBK264737], the viability at 28.5 h, 10 µM turned out to be 87.8%.

For `Nc1ncnc2c1cnn2[C@H]1C[C@@H](O)[C@@H](CO)O1` [CBK201325], the viability at 28.5 h, 10 µM was 98%.

As for `COc1cc2c(cc1NC(=O)C/C(C)=N/NC(=O)c1ccccc1F)oc1ccccc12` [CBK262437], the viability at 28.5 h, 10 µM turned out to be 106%.

Take `CCN(CC)CC(O)Cn1ccc(-c2cccs2)n1` (centres unmarked) [CBK005967]: the viability at 28.5 h, 10 µM is 88.7%.

`O=C(O)CCCCCNc1ccc(C(F)(F)F)cc1[N+](=O)[O-]` [CBK286707]: the viability at 28.5 h, 10 µM amounted to 83.3%.

As for `O=c1c2ccccc2nc2n1CCN(Cc1c(F)cccc1F)CC2` [CBK284817], the viability at 28.5 h, 10 µM was 88.7%.

`NS(=O)(=O)c1ccc(CCNC(=O)c2ccc(C#Cc3ccccc3)cc2)cc1` [CBK263089]: the viability at 28.5 h, 10 µM amounted to 95.9%.

`CC(C)CCN(Cc1ccc(-c2ccc(S(C)(=O)=O)cc2)nc1)C1CCN(C(=O)OC(C)(C)C)CC1` [CBK165138]: the viability at 28.5 h, 10 µM amounted to 83.4%.

`CCOC(=O)CCc1nc2ccccc2nc1O` [CBK264526]: the viability at 28.5 h, 10 µM was 106%.

As for `CC(C)(C)OC(=O)n1cccc1-c1cncc(-c2ccc(C(=O)N3CCOCC3)cc2)n1` [CBK138520], the viability at 28.5 h, 10 µM stood at 100%.

Regarding `COc1cc(Nc2cc(-c3cccc(N)c3)ncn2)cc(OC)c1OC` [CBK037713], the viability at 28.5 h, 10 µM was 117%.

In the case of `O=C(NCc1cccnc1OCC(F)(F)F)c1ccc(=O)[nH]n1` [CBK305578], the viability at 28.5 h, 10 µM is 92.1%.

For `C=C1S/C(=N\c2cc(Cl)cc(Cl)c2)NC1(CC)CC` [CBK009484], the viability at 28.5 h, 10 µM was 109%.

With `CC(C)CNc1nccnc1-c1ccc(Cl)cc1` [CBK088738], the viability at 28.5 h, 10 µM worked out at 91.3%.

For the compound `COc1cc(C(c2c[nH]c3ccccc23)c2c[nH]c3ccccc23)ccc1OCC(=O)O` [CBK265717], the viability at 28.5 h, 10 µM worked out at 97.8%.

On to `CC(C)(N)CNC(=O)c1cnc2cc(Cl)ccc2c1O` [CBK107360], for which the viability at 28.5 h, 10 µM came out at 101%.

For `Nc1ccc2ccc(-c3ccccc3)nc2n1` [CBK061865], the viability at 28.5 h, 10 µM was 97%.

In the case of `Cn1c(=O)c(C(=O)Nc2ccccc2S(N)(=O)=O)c(O)c2ccccc21` [CBK262267], the viability at 28.5 h, 10 µM turned out to be 85.5%.

Take `O=C(/C=C/C=C/c1ccccc1)CC1(O)C(=O)N(Cc2cccc3ccccc23)c2ccccc21` (centres unmarked) [CBK264744]: the viability at 28.5 h, 10 µM is 93.6%.

As to `CCC1CCC2(CC1)NC(=O)N(Cc1cc(-c3ccccc3)on1)C2=O` (centres unmarked) [CBK294977], the viability at 28.5 h, 10 µM stood at 90.1%.

For `O=C(NCc1ccsc1)NCC1CCN(c2ccncc2)CC1` [CBK306394], the viability at 28.5 h, 10 µM came out at 91.3%.

Regarding `O=C(CN1CCOCC1)N1CCN(C(=O)c2ccco2)CC1` [CBK144478], the viability at 28.5 h, 10 µM was determined as 99.2%.

On to `CCN(CC)C(=O)c1cn(CCC#N)nc1-c1cccc(OC)c1` [CBK305941], for which the viability at 28.5 h, 10 µM is 92.6%.

`CC(=O)N1CCc2c([nH]c3c(C)cccc23)C12CCCN(CCCC#N)C2` (centres unmarked) [CBK039705]: the viability at 28.5 h, 10 µM was found to be 104%.

As to `O=C1c2ccccc2CN1c1ccc(Cl)cc1Cl` [CBK109908], the viability at 28.5 h, 10 µM turned out to be 95%.

On to `COc1cc(/C=C2\SC(=N)NC2=O)cc(Br)c1OS(=O)(=O)c1ccc(C)cc1` [CBK263609], for which the viability at 28.5 h, 10 µM was determined as 95.1%.

For the compound `Cc1nc2c(C(=O)NCCNC(=O)c3cccnc3)ncn2c(C)c1Cc1ccc(F)c(Cl)c1` [CBK169332], the viability at 28.5 h, 10 µM was found to be 89.8%.

`COc1ccc(C(=O)Nc2nnc(-c3ccc(OC)c(OC)c3)o2)cc1OC` [CBK287745]: the viability at 28.5 h, 10 µM worked out at 93.7%.

With `Cn1c(SCC(=O)NCCCN2CCOCC2)nc2ccccc2c1=O` [CBK287607], the viability at 28.5 h, 10 µM worked out at 109%.

Turning to `O=C1NC[C@@H](CCC(=O)N2CCCC2)N2C[C@@H](NC(=S)Nc3ccccc3)C[C@@H]12` [CBK289004], the viability at 28.5 h, 10 µM came to 113%.

As for `O=C1c2ccccc2C(=O)N1c1ccc(S(=O)(=O)NCCCO)c2ccccc12` [CBK262509], the viability at 28.5 h, 10 µM amounted to 105%.

As to `CC(C)NC(=O)c1sc2ccccc2c1C1CN(Cc2c[nH]nc2C(C)(C)C)CCO1` (centres unmarked) [CBK285535], the viability at 28.5 h, 10 µM came to 93.5%.

`COc1ccc(F)c(CN2CCC3(CCCNC3=O)CC2)c1` [CBK284827]: the viability at 28.5 h, 10 µM was 102%.

With `Cc1noc(C)c1C(=O)NC1Cc2ccccc2C1` [CBK200350], the viability at 28.5 h, 10 µM stood at 91.4%.

As for `CC(C)Nc1nccnc1OCCOc1cccc(O)c1` [CBK115878], the viability at 28.5 h, 10 µM amounted to 101%.

For `CN(CCCN1CCCCC1)C(=O)C1Cc2cc(Cl)ccc2O1` (centres unmarked) [CBK282162], the viability at 28.5 h, 10 µM was 104%.

As for `CN(C)CCN(C)C1CCN(Cc2ccccc2)CC1` [CBK261930], the viability at 28.5 h, 10 µM is 102%.

`Cc1ccc(NC(=O)Cn2cnc3c(-c4ccccc4)csc3c2=O)cc1` [CBK287812]: the viability at 28.5 h, 10 µM came to 104%.

Turning to `O=C1CCC(=O)N1CCn1c(=O)n(S(=O)(=O)c2cccc(Cl)c2)c2ccccc21` [CBK106493], the viability at 28.5 h, 10 µM is 93.1%.

Turning to `Cc1cc(Cl)cc(Cl)c1OCCCc1c(C)n[nH]c1C` [CBK025733C], the viability at 28.5 h, 10 µM is 76.9%.

For `CN1CCN(c2ccc([N+](=O)[O-])c(NCc3ccccc3)c2)CC1` [CBK042199], the viability at 28.5 h, 10 µM came out at 93.7%.

On to `O=C(c1sccc1NS(=O)(=O)c1ccc(Oc2ccccc2)cc1)N1CCOCC1` [CBK050423], for which the viability at 28.5 h, 10 µM stood at 95.3%.

Regarding `O=C(CSc1ccccc1)Nc1cnc(-c2ccc(F)cc2)c(-c2ccco2)n1` [CBK037196], the viability at 28.5 h, 10 µM was 101%.

As for `Cc1csc(Sc2nccnc2NC(C)C)n1` [CBK115203], the viability at 28.5 h, 10 µM is 88.8%.

Consider `Cc1cc(C(C)NC(=O)C2CCCN(S(C)(=O)=O)C2)c(C)s1` (centres unmarked) [CBK305464], for which the viability at 28.5 h, 10 µM was 98.4%.

Turning to `O=C(CN1CCCC1)Nc1sc2c(c1C(=O)NCc1ccccc1)CCCC2` [CBK268926], the viability at 28.5 h, 10 µM is 105%.

On to `N#Cc1cn([C@@H]2O[C@H](CO)[C@H](O)C2O)c2ncnc(N)c12` (some centres unmarked) [CBK201204], for which the viability at 28.5 h, 10 µM stood at 18%.

Take `c1ccc(-c2nnc(C3CCNCC3)[nH]2)nc1` [CBK288629G]: the viability at 28.5 h, 10 µM turned out to be 97%.

Turning to `O=c1[nH]cc(-c2ccc(F)cc2)cc1CNCc1cccc(F)c1` [CBK284697], the viability at 28.5 h, 10 µM was 94.6%.

For `CN(C)CCNC(=O)C1CCN(c2nc3c(-c4ccccc4F)csc3c(=O)[nH]2)CC1` [CBK215437], the viability at 28.5 h, 10 µM worked out at 85.1%.

For the compound `CCCC/C=C\c1nccnc1OCCn1cccc1` [CBK106891], the viability at 28.5 h, 10 µM amounted to 104%.

Turning to `CCC(CC)n1nc(C(=O)NC2(C#N)CCSC2)cc1C` (centres unmarked) [CBK305111], the viability at 28.5 h, 10 µM was 103%.

Regarding `Cc1cc(C)c(C)c(CSCc2nc3ccccc3[nH]2)c1C` [CBK266466], the viability at 28.5 h, 10 µM is 98.8%.

For the compound `OCCCNC(=S)Nc1ccc(Br)cc1Cl` [CBK086487], the viability at 28.5 h, 10 µM is 82.3%.

`O=C(O)CCC(NC(=O)c1ccc(I)cc1)C(=O)O` (centres unmarked) [CBK087614]: the viability at 28.5 h, 10 µM was found to be 95.8%.

Turning to `O=S(=O)(Nc1ccc(Cl)c(Cl)c1)c1ccc(Cl)c(Cl)c1` [CBK044838], the viability at 28.5 h, 10 µM came out at 86.8%.

Turning to `Cc1ccc(S(=O)(=O)OC[C@H]2O[C@@H](n3ccc(=O)[nH]c3=O)C[C@H]2O)cc1` [CBK201283], the viability at 28.5 h, 10 µM was 95.7%.

Turning to `c1ccc(N2CCN(c3cc(-c4cc5ccccc5s4)ncn3)CC2)nc1` [CBK091084], the viability at 28.5 h, 10 µM came to 102%.

In the case of `CCCn1c(NC(=O)C2CCCN2S(=O)(=O)CC)nc2ccccc21` (centres unmarked) [CBK295624], the viability at 28.5 h, 10 µM is 96.8%.

Take `OCCN(CCO)c1nc(-c2ccccc2)nc2sc(-c3ccccc3)cc12` [CBK265935]: the viability at 28.5 h, 10 µM was determined as 105%.

On to `CCCNC(=O)C(C)Sc1nc2ccsc2c(=O)n1CC` (centres unmarked) [CBK296745], for which the viability at 28.5 h, 10 µM came to 105%.

Turning to `CC(C)c1c(N)nc(SCc2ccccc2)nc1Cl` [CBK016721], the viability at 28.5 h, 10 µM came to 123%.

As to `CN(C)S(=O)(=O)Nc1ccccc1C(N)=O` [CBK264382], the viability at 28.5 h, 10 µM came out at 111%.

Take `O=C(NCCN1CCC(O)(c2cccc(F)c2)CC1)C1CCCC1` [CBK283285]: the viability at 28.5 h, 10 µM was 110%.

As to `CCCCC(CC)C(=O)N1CCN(c2ccc(OC)cc2)CC1` (centres unmarked) [CBK091414], the viability at 28.5 h, 10 µM is 99.9%.

Regarding `Cc1ccc(C(=O)CC(C(=O)O)c2cn(CCC#N)c3ccccc23)cc1` (centres unmarked) [CBK287194], the viability at 28.5 h, 10 µM came out at 85.8%.

Take `COc1ccc(-c2nn(C)c(=O)c3ccccc23)cc1CNC(=O)c1cc([N+](=O)[O-])ccc1OC` [CBK266229]: the viability at 28.5 h, 10 µM came to 116%.

With `COC(=O)c1ccc2cccnc2c1O` [CBK017876], the viability at 28.5 h, 10 µM amounted to 90.9%.

As for `Cc1cccc(OCC2CCCN(C(=O)NCCc3cnn(C)c3)C2)c1` (centres unmarked) [CBK307358], the viability at 28.5 h, 10 µM was 96.9%.

Turning to `CN(C)C(CNc1cncc(-c2cccc(Cl)c2)n1)c1cccnc1` (centres unmarked) [CBK037247], the viability at 28.5 h, 10 µM is 113%.
